This note sets out measurements from ChEMBL document CHEMBL1201862, “PubChem BioAssay data set” (2004).

Among the test systems are SNB-75; IGROV-1; NCI-H460; BT-549; SF-539; OVCAR-8; SK-MEL-2; M14; RXF 393; A498; CAKI-1; T47D; OVCAR-4; LOX IMVI; U-251; HCT-116; SK-MEL-5; NCI-H226; MOLT-4; CCRF-CEM.
Holding throughout (assay): growth of human tumour cells (NCI), 48 h

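Assay format: 96-well plates, 48-hour exposure. The concentration for 50% growth inhibition is given as GI50.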 The source made the active and inactive calls. Cut-off read from the data, not from the text of the source: active = GI50 up to about 1.1 µM and inactive = higher.

On to `COc1ccc2oc(C(=O)N3CC(CCl)c4ccc([N+](=O)[O-])cc43)cc2c1` (centres undefined), for which the GI50 is 18.2 µM (inactive) in the experiment with SNB-75; 0.103 µM (active) in the experiment with IGROV-1; 31.3 µM (inactive) in the experiment on NCI-H460; 42.3 µM (inactive) in the experiment with BT-549; 14 µM (inactive) in the experiment with SF-539; 17.2 µM (inactive) in the experiment on OVCAR-8. Moreover, the GI50 is 26.4 µM (inactive) in the experiment on SK-MEL-2; 89.9 µM (inactive) in the experiment with M14; 13.4 µM (inactive) with RXF 393; 18.9 µM (inactive) in the experiment with A498; 15.4 µM (inactive) with CAKI-1; 53.8 µM (inactive) in the experiment with T47D. The GI50 in the experiment on OVCAR-4 was 15.2 µM (inactive); in the experiment on LOX IMVI it was 67 µM (inactive); in the experiment with U-251 it was 26 µM (inactive); in the experiment with HCT-116, 89.1 µM (inactive); in the experiment with SK-MEL-5, > 100 µM (inactive); with NCI-H226, 0.664 µM (active).

For the compound `N#Cc1cc(-c2nc3c(F)cccc3s2)ccc1N`, the GI50 is > 100 µM (inactive) in the experiment on SNB-75; 6.1 µM (inactive) in the experiment on IGROV-1; > 100 µM (inactive) in the experiment on MOLT-4; 20.5 µM (inactive) in the experiment with NCI-H460; > 100 µM (inactive) with BT-549; > 100 µM (inactive) with SF-539. In addition, the GI50 with OVCAR-8 was > 100 µM (inactive); with M14, > 100 µM (inactive); with RXF 393 it was > 100 µM (inactive); with A498, > 100 µM (inactive); in the experiment with CCRF-CEM, 85.5 µM (inactive); in the experiment with CAKI-1 it was 46 µM (inactive). The GI50 in the experiment with T47D is 0.912 µM (active); in the experiment with OVCAR-4, > 100 µM (inactive); in the experiment on LOX IMVI it was > 100 µM (inactive); in the experiment with U-251, > 100 µM (inactive); in the experiment with HCT-116, > 100 µM (inactive); in the experiment on SK-MEL-5, 56.4 µM (inactive). In the experiment on NCI-H226, the GI50 was > 100 µM (inactive).

For `COc1cc(/C=N\N(C)C)cc(/C=N/N(C)C)c1O`, the GI50 is < 0.01 µM (active) in the experiment with MOLT-4; 30.1 µM (inactive) in the experiment on NCI-H460; 13.4 µM (inactive) in the experiment on BT-549; 6.03 µM (inactive) with SF-539; 7.89 µM (inactive) in the experiment on SK-MEL-2; 18.3 µM (inactive) in the experiment with M14. Further, the GI50 in the experiment with RXF 393 is 43.1 µM (inactive); in the experiment on A498, 45.6 µM (inactive); in the experiment with CCRF-CEM it was 17.3 µM (inactive); in the experiment with CAKI-1, 21.1 µM (inactive); with T47D, 1.98 µM (inactive); in the experiment on OVCAR-4, 49.2 µM (inactive). The GI50 is 25.1 µM (inactive) with LOX IMVI; 21.1 µM (inactive) in the experiment with U-251; 29.8 µM (inactive) in the experiment with HCT-116; 26.2 µM (inactive) in the experiment with SK-MEL-5; 15.8 µM (inactive) in the experiment with NCI-H226.

On to `OC1(C2(c3ccc(Cl)cc3)CCCC2)c2ccccc2C2=NCCN21` (centres undefined), for which the GI50 was 3.83 µM (inactive) with SNB-75; 12.9 µM (inactive) with IGROV-1; 13.3 µM (inactive) in the experiment on MOLT-4; 14.3 µM (inactive) with NCI-H460; 16.8 µM (inactive) in the experiment on BT-549; 17.3 µM (inactive) in the experiment with OVCAR-8. In addition, the GI50 in the experiment on M14 was 14.2 µM (inactive); with RXF 393, 1.68 µM (inactive); in the experiment with A498, 15.7 µM (inactive); in the experiment with CCRF-CEM, 14.4 µM (inactive); in the experiment on CAKI-1, 14.8 µM (inactive); with T47D it was 6.43 µM (inactive). For the same compound, the GI50 in the experiment on OVCAR-4 is 12.9 µM (inactive); in the experiment with LOX IMVI, 14.4 µM (inactive); with U-251, 14.2 µM (inactive); with HCT-116, 11.7 µM (inactive); in the experiment with SK-MEL-5 it was 12.4 µM (inactive); in the experiment on NCI-H226, 17.1 µM (inactive).

Turning to `ClC(Cl)(Cl)C1CCOC1n1nnc2ccccc21` (centres undefined), the GI50 was 1.2 µM (inactive) in the experiment on SNB-75; > 100 µM (inactive) in the experiment on IGROV-1; 21.9 µM (inactive) with MOLT-4; 25.9 µM (inactive) with BT-549; > 100 µM (inactive) in the experiment on SF-539; > 100 µM (inactive) with OVCAR-8. The GI50 in the experiment on SK-MEL-2 was > 100 µM (inactive); in the experiment with M14, > 100 µM (inactive); with RXF 393, > 100 µM (inactive); in the experiment on A498, > 100 µM (inactive); in the experiment with CCRF-CEM, 44.1 µM (inactive); in the experiment on CAKI-1 it was > 100 µM (inactive). For the same compound, the GI50 in the experiment on T47D is > 100 µM (inactive); in the experiment on U-251, 90.4 µM (inactive); in the experiment on HCT-116 it was 92.9 µM (inactive); in the experiment on SK-MEL-5, 45.2 µM (inactive); with NCI-H226, > 100 µM (inactive).

`Cc1ccc(O)cc1.Cc1cccc(O)c1.Cc1ccccc1O` [CRESOL]: the GI50 in the experiment with IGROV-1 was 88.9 µM (inactive); in the experiment with MOLT-4, 88.7 µM (inactive); in the experiment with NCI-H460, > 100 µM (inactive); with BT-549, > 100 µM (inactive); in the experiment on SF-539, > 100 µM (inactive); with OVCAR-8, > 100 µM (inactive). Further, the GI50 in the experiment on SK-MEL-2 was > 100 µM (inactive); in the experiment on M14, > 100 µM (inactive); in the experiment with RXF 393, > 100 µM (inactive); in the experiment with A498 it was > 100 µM (inactive); with CCRF-CEM, 18.7 µM (inactive); in the experiment on CAKI-1, > 100 µM (inactive). In addition, the GI50 was > 100 µM (inactive) in the experiment with T47D; 89.3 µM (inactive) with OVCAR-4; > 100 µM (inactive) in the experiment with LOX IMVI; > 100 µM (inactive) in the experiment on U-251; > 100 µM (inactive) in the experiment with HCT-116; > 100 µM (inactive) with SK-MEL-5. The GI50 in the experiment with NCI-H226 was 85.9 µM (inactive).

Consider `Nc1cc([N+](=O)[O-])ccc1C(=O)N1CCC[C@H]1CO`, for which the GI50 in the experiment on SNB-75, in the experiment on IGROV-1, with MOLT-4, in the experiment with NCI-H460, in the experiment with BT-549 and with SF-539 was > 100 µM (inactive) throughout. Moreover, the GI50 in the experiment with OVCAR-8, in the experiment with SK-MEL-2, in the experiment on RXF 393, with A498, in the experiment with CCRF-CEM and in the experiment on CAKI-1 was > 100 µM (inactive) throughout. Further, the GI50 was 90.4 µM (inactive) in the experiment with T47D; > 100 µM (inactive) in the experiment with OVCAR-4; > 100 µM (inactive) in the experiment with LOX IMVI; > 100 µM (inactive) in the experiment with U-251; > 100 µM (inactive) with HCT-116; > 100 µM (inactive) with NCI-H226.

In the case of `Nc1ccc(Oc2ccc(C34CC5CC(C3)CC(c3ccc(Oc6ccc(N)cc6C(F)(F)F)cc3)(C5)C4)cc2)c(C(F)(F)F)c1`, the GI50 in the experiment with IGROV-1 is 19.5 µM (inactive); in the experiment on MOLT-4 it was 35.7 µM (inactive); with NCI-H460, 18.4 µM (inactive); in the experiment with BT-549, 21.9 µM (inactive); in the experiment with OVCAR-8 it was 16 µM (inactive); in the experiment with SK-MEL-2, 14.1 µM (inactive). For the same compound, the GI50 in the experiment with M14 was 16.9 µM (inactive); in the experiment with RXF 393, 11.1 µM (inactive); in the experiment with A498 it was 18.3 µM (inactive); in the experiment with CCRF-CEM, 36.1 µM (inactive); in the experiment with CAKI-1 it was 28.1 µM (inactive); in the experiment on T47D, 15.1 µM (inactive). Also, the GI50 with OVCAR-4 is 36.6 µM (inactive); in the experiment on LOX IMVI, 17.9 µM (inactive); in the experiment with U-251, 14.5 µM (inactive); in the experiment on HCT-116 it was 24.9 µM (inactive); in the experiment with SK-MEL-5, 22 µM (inactive); in the experiment on NCI-H226, 19.4 µM (inactive).

Turning to `COC(=O)C(C)Sc1nc2cc(Cl)ccc2s1` (centres undefined), the GI50 in the experiment with SNB-75, with IGROV-1, with MOLT-4, in the experiment on NCI-H460, in the experiment with BT-549 and in the experiment on SF-539 was > 100 µM (inactive) throughout. Besides, the GI50 in the experiment on OVCAR-8 is > 100 µM (inactive); in the experiment on M14, > 100 µM (inactive); in the experiment on RXF 393, > 100 µM (inactive); with A498, > 100 µM (inactive); in the experiment on CCRF-CEM, 78.5 µM (inactive); with CAKI-1, > 100 µM (inactive). The GI50 in the experiment with T47D, with OVCAR-4, in the experiment on U-251, in the experiment on HCT-116, in the experiment with SK-MEL-5 and in the experiment on NCI-H226 was > 100 µM (inactive) throughout.

For the compound `CCN(CC)CCC(=O)c1ccc(C)cc1`, the GI50 in the experiment on SNB-75 is 11.5 µM (inactive); in the experiment with IGROV-1, 17.7 µM (inactive); in the experiment on MOLT-4 it was 18.5 µM (inactive); in the experiment on NCI-H460 it was > 100 µM (inactive); in the experiment with BT-549 it was 22.4 µM (inactive); in the experiment on SF-539, 88.3 µM (inactive). Also, the GI50 in the experiment with OVCAR-8 is 33.4 µM (inactive); in the experiment with M14 it was 19.1 µM (inactive); in the experiment with RXF 393 it was 17 µM (inactive); in the experiment with A498, 16.4 µM (inactive); in the experiment on CCRF-CEM it was 10.1 µM (inactive); with T47D, 14.7 µM (inactive). Besides, the GI50 in the experiment with OVCAR-4 is 23.5 µM (inactive); with LOX IMVI, 29.9 µM (inactive); with U-251, > 100 µM (inactive); with HCT-116, 16.3 µM (inactive); in the experiment with SK-MEL-5, 13.1 µM (inactive); with NCI-H226, 28.6 µM (inactive).

As for `O=C(O)[C@H](CCC[C@H]1C(=O)O[C@H](c2ccccc2)[C@H](c2ccccc2)N1C(=O)OCc1ccccc1)N[C@@H](c1ccccc1)[C@H](O)c1ccccc1`, the GI50 in the experiment on SNB-75 is 17 µM (inactive); with IGROV-1 it was 42.8 µM (inactive); in the experiment with MOLT-4 it was 24.3 µM (inactive); in the experiment on NCI-H460, 34.5 µM (inactive); with BT-549, 27 µM (inactive); with SF-539, 18.6 µM (inactive). For the same compound, the GI50 is 20.5 µM (inactive) with OVCAR-8; 20 µM (inactive) in the experiment on SK-MEL-2; > 100 µM (inactive) in the experiment on M14; 22.6 µM (inactive) in the experiment with RXF 393; 28 µM (inactive) in the experiment with A498; 20 µM (inactive) with CCRF-CEM. Besides, the GI50 in the experiment with CAKI-1 was > 100 µM (inactive); in the experiment with T47D it was 43.3 µM (inactive); in the experiment with OVCAR-4 it was 32.2 µM (inactive); with LOX IMVI it was 22.9 µM (inactive); with U-251, 16 µM (inactive); in the experiment on HCT-116 it was 20.8 µM (inactive). The GI50 with SK-MEL-5 was 18.5 µM (inactive).
